For orientation: Ki means a measure of affinity in units of concentration, obtained from inhibition or displacement. By melting point is commonly meant the temperature of the solid-liquid transition. One may read the Emax as the size of the effect at its maximum, as opposed to the concentration needed. A word on the EC50: it is the concentration that produces a half-maximal response. Usually Kd stands for the concentration at which binding is half-saturated.

SMILES strings stand for the structures. Read-outs that look alike come from different tables or passages of the source.

We go through 19 compounds from patent publication US7368477B2, “Benzofuranyl alkanamine derivatives and uses thereof” (Wyeth, priority 2005, dated 2008).

Data set [1] addresses T1, human 5-hydroxytryptamine-2C (h5-HT2C) receptor (Homo sapiens, UniProt P28335).
T1 construct: expressed in transfected cells; host or cells: CHO (Chinese Hamster Ovary) cells; membrane preparation
T1 sequence (P28335 33-458): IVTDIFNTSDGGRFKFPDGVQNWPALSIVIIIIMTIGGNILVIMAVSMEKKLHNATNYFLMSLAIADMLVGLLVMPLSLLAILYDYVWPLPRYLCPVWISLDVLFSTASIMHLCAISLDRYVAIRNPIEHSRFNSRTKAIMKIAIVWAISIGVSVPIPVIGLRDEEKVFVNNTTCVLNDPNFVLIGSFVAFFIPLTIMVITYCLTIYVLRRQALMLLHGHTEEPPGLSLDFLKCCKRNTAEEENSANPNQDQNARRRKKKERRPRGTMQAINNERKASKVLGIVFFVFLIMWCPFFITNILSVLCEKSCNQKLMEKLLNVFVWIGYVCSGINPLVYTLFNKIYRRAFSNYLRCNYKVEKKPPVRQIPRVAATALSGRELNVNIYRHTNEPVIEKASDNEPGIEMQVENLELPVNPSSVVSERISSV
As to the kind of experiment: [125I]DOI binding to membranes of CHO cells expressing the human 5-HT2C receptor.

For data set [2], the target named is T2, human 5-HT2C receptor (Homo sapiens, UniProt P28335).
T2 sequence (P28335 33-458): T1 sequence (P28335 33-458)
As to the kind of experiment: Calcium mobilization (FLIPR) in CHO cells stably expressing the human 5-HT2C receptor. Particulars: for Emax: CHO, read-out: 5-HT2C Function EMax (%); for EC50: calcium mobilization, h5-HT2C CHO cells, read-out: 5-HT2C Function EC50. Format: cell-based. Background: A change in cytosolic calcium serves as a functional read-out for many receptors and channels.

[3] abbreviates: read-out: 5-HT2C Binding Ki avg.

In the case of `I.NCc1cc2cc(Cl)cc(-c3ccccc3)c2o1` [Compound 1, [(5-chloro-7-phenyl-1-benzofuran-2-yl)methyl]amine], the melting point was > 225 °C. In data set [1] (setting [3]), the Ki fell in the range of 10 to 100 nM. In addition, in data set [2], the Emax was found to be 70% and the EC50 was in the range of 200 to 2000 nM.

`NCc1cc2cc(Cl)cc(-c3ccccc3F)c2o1` [Compound 2, {[5-chloro-7-(2-fluorophenyl)-1-benzofuran-2-yl]methyl}amine]: the Ki in data set [1] (setting [3]) was in the range of 1 to 10 nM. Also, in data set [2], the Emax came to 80% and the EC50 is 200 to 2000 nM.

As to `NCc1cc2cc(Cl)cc(-c3ccccc3Cl)c2o1` [Compound 3, {[5-chloro-7-(2-chlorophenyl)-1-benzofuran-2-yl]methyl}amine], in data set [2], the Emax is 100% and the EC50 was < 10 nM.

Turning to `Cc1ccccc1-c1cc(Cl)cc2cc(CN)oc12` [Compound 4, {[5-chloro-7-(2-methylphenyl)-1-benzofuran-2-yl]methyl}amine], in data set [2], the Emax came to 90% and the EC50 was in the range of 10 to 200 nM.

With `COc1ccccc1-c1cc(Cl)cc2cc(CN)oc12` [Compound 5, {[5-chloro-7-(2-methoxyphenyl)-1-benzofuran-2-yl]methyl}amine], the Ki in data set [1] (setting [3]) fell in the range of 1 to 10 nM. Besides, in data set [2], the Emax was 90% and the EC50 lay in the range of 10 to 200 nM.

For `NCc1cc2cc(Cl)cc(-c3ccccc3C(F)(F)F)c2o1` [Compound 6, ({5-chloro-7-[2-(trifluoro methyl)phenyl]-1-benzofuran-2-yl}methyl)amine], the melting point is 215 to 218 °C (dec.). For the same compound, the Ki in data set [1] (setting [3]) lay within 10 to 100 nM. In data set [2], the Emax came out at 90% and the EC50 lay in the range of 200 to 2000 nM.

On to `NCc1cc2cc(F)cc(-c3c(Cl)cccc3Cl)c2o1` [Compound 7, {[7-(2,6-dichlorophenyl)-5-fluoro-1-benzofuran-2-yl]methyl}amine], for which, in data set [1] (setting [3]), the Ki lay within 0.01 to 1 nM. For the same compound, in data set [2], the Emax was determined as 100% and the EC50 is < 10 nM.

In the case of `Cc1ccccc1-c1cc(F)cc2cc(CN)oc12` [Compound 8, {[5-fluoro-7-(2-methylphenyl)-1-benzofuran-2-yl]methyl}amine], the inhibition constant (Ki) in data set [1] (setting [3]) lay in the range of 1 to 10 nM. Also, in data set [2], the Emax is 90% and the concentration giving a half-maximal response (EC50) was < 10 nM.

On to `NCc1cc2cc(F)cc(-c3ccc(Cl)cc3Cl)c2o1` [Compound 9, {[7-(2,4-dichlorophenyl)-5-fluoro-1-benzofuran-2-yl]methyl}amine], for which the Ki in data set [1] (setting [3]) is 0.01 to 1 nM. Besides, in data set [2], the Emax was found to be 90% and the EC50 is < 10 nM.

`COc1ccccc1-c1cc(F)cc2cc(CN)oc12` [Compound 10, 1-[5-fluoro-7-(2-methoxyphenyl)-1-benzofuran-2-yl]methanamine] came in with a melting point of 128 to 130 °C. Moreover, in data set [1] (setting [3]), the inhibition constant Ki was 1 to 10 nM. For the same compound, in data set [2], the Emax is 80% and the EC50 was 10 to 200 nM.

Take `NCc1cc2cc(F)cc(-c3cc(Cl)ccc3Cl)c2o1` [Compound 11, 1-[7-(2,5-dichlorophenyl)-5-fluoro-1-benzofuran-2-yl]methanamine]: the melting point lay in the range of 245 to 247 °C. Also, the Ki in data set [1] (setting [3]) lay within 0.01 to 1 nM. In data set [2], the Emax was 70% and the EC50 is < 10 nM.

In turn, `Cc1ccccc1-c1cccc2cc(CN)oc12` [Compound 12, 1-[7-(2-methylphenyl)-1-benzofuran-2-yl]methanamine] returned a melting point of 222 to 224 °C. The Ki in data set [1] (setting [3]) lay within 1 to 10 nM. Further, in data set [2], the Emax was 70% and the EC50 is < 10 nM.

Consider `Cc1cc(Cl)ccc1-c1cc(F)cc2cc(CN)oc12` [Compound 13, 1-[7-(4-chloro-2-methylphenyl)-5-fluoro-1-benzofuran-2-yl]methanamine], for which the melting point was in the range of 172 to 174 °C. Also, the Ki in data set [1] (setting [3]) was in the range of 1 to 10 nM. Moreover, in data set [2], the Emax is 80% and the EC50 was 10 to 200 nM.

Compound `Cc1ccc(Cl)cc1-c1cc(F)cc2cc(CN)oc12` [Compound 14, 1-[7-(5-chloro-2-methylphenyl)-5-fluoro-1-benzofuran-2-yl]methanamine] came in with a melting point of 208 to 210 °C. In addition, the Ki in data set [1] (setting [3]) lay in the range of 1 to 10 nM. For the same compound, in data set [2], the Emax turned out to be 80% and the EC50 lay within 10 to 200 nM.

Consider `NCc1cc2cccc(-c3c(Cl)cccc3Cl)c2o1` [Compound 15, 1-[7-(2,6-dichlorophenyl)-1-benzofuran-2-yl]methanamine], for which the melting point was in the range of 260 to 262 °C. Also, in data set [1] (setting [3]), the Ki was in the range of 0.01 to 1 nM. Moreover, in data set [2], the Emax came to 90% and the EC50 is < 10 nM.

Consider `NCc1cc2ccc(Cl)c(-c3ccccc3Cl)c2o1` [Compound 16, 1-[6-chloro-7-(2-chlorophenyl)-1-benzofuran-2-yl]methanamine], for which the melting point is 208 to 210 °C. Moreover, in data set [1] (setting [3]), the Ki lay in the range of 0.01 to 1 nM. Further, in data set [2], the Emax was 90% and the EC50 was < 10 nM.

Regarding `NCc1cc2ccc(F)c(-c3ccccc3Cl)c2o1` [Compound 17, 1-[7-(2-chlorophenyl)-6-fluoro-1-benzofuran-2-yl]methanamine], the melting point was > 250 °C.

Consider `CSc1ccc2c(c1)C(N1CCN(C)CC1)Cc1ccccc1S2` (stereo not shown) [Methiothepin, reference compound], for which the Ki in data set [1] (reference compounds, [125I]DOI displacement, h5-HT2C CHO membranes, read-out: Ki (95% confidence interval)) turned out to be 4.6 nM.

In the case of `COc1cc(CC(C)N)c(OC)cc1I` (stereo not shown) [[^125I] DOI, reference compound], the Kd in data set [1] (saturation binding with increasing concentrations of [125I]DOI, read-out: dissociation constant, KD) was 0.4 nM.
